Reference: patent publication US5990146A, “Benzimidazoles for inhibiting protein tyrosine kinase mediated cellular proliferation” (Warner-Lambert Company, priority 1998, dated 1999)
pIC50: −log10 of the molar value. Where a name gives a salt, the structure may show the parent alone.

Experiments:
Assay type in all cases: biochemical
[1] = molecular target: T1, PDGF receptor tyrosine kinase (mouse PDGF-β) (Mus musculus, UniProt P05622); test: PDGFr tyrosine kinase assay (poly glutamate-tyrosine phosphorylation); conditions: Table 1; 10 minutes at 25° C.
T1 construct: PCR primers are designed to amplify a fragment of DNA that codes for the intracellular tyrosine kinase domain; made in house; host or cells: Sf9 insect cells (baculovirus), cell lysate
T1 sequence (P05622 599-961 limits assumed): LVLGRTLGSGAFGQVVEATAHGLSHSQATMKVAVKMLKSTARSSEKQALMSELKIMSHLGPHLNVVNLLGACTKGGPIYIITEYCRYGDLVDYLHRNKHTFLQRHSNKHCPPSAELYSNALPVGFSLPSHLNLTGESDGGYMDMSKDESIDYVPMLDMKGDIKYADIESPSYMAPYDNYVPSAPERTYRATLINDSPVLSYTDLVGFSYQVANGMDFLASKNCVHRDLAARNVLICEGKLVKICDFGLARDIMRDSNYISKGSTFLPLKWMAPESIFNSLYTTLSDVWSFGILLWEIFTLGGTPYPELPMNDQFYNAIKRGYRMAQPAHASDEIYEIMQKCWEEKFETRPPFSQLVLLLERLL
Protocol: Platelet Derived Growth Factor Receptor (PDGFr) and Fibroblast Growth Factor Receptor (FGFr)
Full length cDNAs for the mouse PDGF-β and human FGF-1 (flg) receptor tyrosine kinases were obtained from J. Escobedo and are prepared as described in J. Biol. Chem., 262: 1482-1487 (1991). PCR primers are designed to amplify a fragment of DNA that codes for the intracellular tyrosine kinase domain. The fragment is melded into a baculovirus vector, cotransfected with AcMNPV DNA, and the recombinant virus isolated. SF9 insect cells are infected with the virus to overexpress the protein, and the cell lysate is used for the assay.
The assay is performed in 96-well plates (100 μL/incubation/well), and conditions are optimized to measure the incorporation of ^32 p from [γ^32 P]-ATP into a glutamate-tyrosine copolymer substrate. Briefly, to each well is added 82.5 μL of incubation buffer containing 25 mM Hepes (pH 7.0), 150 mM NaCl, 0.1% Triton X-100, 0.2 mM PMSF, 0.2 mM sodium vanadate, 10 mM manganese chloride, and 750 μg/mL of poly (4:1) glutamate-tyrosine followed by 2.5 μL of inhibitor and 5 μL of enzyme lysate (7.5 μg/μL FGFR-TK or 6.0 μg/μL PDGFR-TK) to initiate the reaction. Following a 10 minute incubation at 25° C., 10 μL of [γ^32 P]-ATP (0.4 μCi plus 50 μM ATP) is added to each well and samples are incubated for an additional 10 minutes at 25° C. The reaction is terminated by the addition of 100 μL of 30% trichloroacetic acid (TCA) containing 20 mM sodium pyrophosphate and precipitation of material onto glass fiber filter mats (Wallac). Filters are washed 3 times with 15% TCA containing 100 mM sodium pyrophosphate and the radioactivity retained on the filters counted in a Wallac 1250 Betaplate reader. Nonspecific activity is defined as radioactivity retained on the filters following incubation of samples with buffer alone (no enzyme). Specific enzymatic activity is defined as total activity (enzyme plus buffer) minus nonspecific activity.

[2] = molecular target: T2, FGF receptor tyrosine kinase (human FGF-1 (flg)) (Homo sapiens, UniProt P11362); test: FGFr tyrosine kinase assay (poly glutamate-tyrosine phosphorylation); conditions: Table 1; 10 minutes at 25° C.
T2 construct: PCR primers are designed to amplify a fragment of DNA that codes for the intracellular tyrosine kinase domain; made in house; host or cells: Sf9 insect cells (baculovirus), cell lysate
T2 sequence (P11362 478-767 limits assumed): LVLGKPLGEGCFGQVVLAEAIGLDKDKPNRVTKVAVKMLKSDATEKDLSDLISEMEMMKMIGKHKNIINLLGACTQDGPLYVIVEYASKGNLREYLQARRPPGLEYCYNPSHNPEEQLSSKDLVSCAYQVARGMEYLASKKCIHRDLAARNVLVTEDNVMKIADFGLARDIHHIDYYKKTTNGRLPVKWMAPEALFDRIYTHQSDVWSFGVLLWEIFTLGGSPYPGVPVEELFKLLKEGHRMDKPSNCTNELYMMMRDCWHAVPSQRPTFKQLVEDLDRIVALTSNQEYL
Protocol: Platelet Derived Growth Factor Receptor (PDGFr) and Fibroblast Growth Factor Receptor (FGFr) Full length cDNAs for the mouse PDGF-β and human FGF-1 (flg) receptor tyrosine kinases were obtained from J. Escobedo and are prepared as described in J. Biol. Chem., 262: 1482-1487 (1991). PCR primers are designed to amplify a fragment of DNA that codes for the intracellular tyrosine kinase domain. The fragment is […] into a baculovirus vector, cotransfected with AcMNPV DNA, and the recombinant virus isolated. SF9 insect cells are infected with the virus to overexpress the protein, and the cell lysate is used for the […] and FGFr The assay is performed in 96-well plates (100 μL/incubation/well), and conditions are optimized to measure the incorporation of ^32 p from [γ^32 P]-ATP into a glutamate-tyrosine copolymer substrate. […] The reaction is terminated by the addition of 100 μL of 30% trichloroacetic acid (TCA) containing 20 mM sodium pyrophosphate and precipitation of material onto glass fiber filter mats (Wallac). Filters are washed 3 times with 15% TCA containing 100 mM sodium pyrophosphate and the radioactivity retained on the filters counted in a Wallac 1250 Betaplate reader. Nonspecific activity is defined as radioactivity retained on the filters following incubation of samples with buffer alone (no enzyme). Specific enzymatic activity is defined as total activity (enzyme plus buffer) minus nonspecific activity.

[3] = molecular target: T3, insulin receptor (INSr) (Homo sapiens, UniProt P06213); test: Insulin receptor kinase assay; conditions: Table 1; as for EGF receptor with 10 mM manganese chloride
T3 construct: An assay using the intracellular kinase domains of insulin receptor (INSr) is performed
T3 sequence (P06213 1023-1298 limits assumed, species assumed): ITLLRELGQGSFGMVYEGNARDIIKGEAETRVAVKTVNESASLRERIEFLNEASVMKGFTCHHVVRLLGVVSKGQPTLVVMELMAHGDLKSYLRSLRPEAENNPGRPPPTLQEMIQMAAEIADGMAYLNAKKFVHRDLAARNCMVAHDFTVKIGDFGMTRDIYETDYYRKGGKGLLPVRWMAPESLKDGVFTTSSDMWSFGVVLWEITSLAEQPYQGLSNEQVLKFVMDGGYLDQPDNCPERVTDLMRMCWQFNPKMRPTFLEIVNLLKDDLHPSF

[4] = molecular target: T4, c-Src (Homo sapiens, UniProt P12931); test: c-Src kinase assay; conditions: Table 1; 5 μM ATP, room temperature, 10 minutes
T4 construct: made in house; host or cells: baculovirus infected insect cells
T4 sequence (P12931 whole entry, species assumed): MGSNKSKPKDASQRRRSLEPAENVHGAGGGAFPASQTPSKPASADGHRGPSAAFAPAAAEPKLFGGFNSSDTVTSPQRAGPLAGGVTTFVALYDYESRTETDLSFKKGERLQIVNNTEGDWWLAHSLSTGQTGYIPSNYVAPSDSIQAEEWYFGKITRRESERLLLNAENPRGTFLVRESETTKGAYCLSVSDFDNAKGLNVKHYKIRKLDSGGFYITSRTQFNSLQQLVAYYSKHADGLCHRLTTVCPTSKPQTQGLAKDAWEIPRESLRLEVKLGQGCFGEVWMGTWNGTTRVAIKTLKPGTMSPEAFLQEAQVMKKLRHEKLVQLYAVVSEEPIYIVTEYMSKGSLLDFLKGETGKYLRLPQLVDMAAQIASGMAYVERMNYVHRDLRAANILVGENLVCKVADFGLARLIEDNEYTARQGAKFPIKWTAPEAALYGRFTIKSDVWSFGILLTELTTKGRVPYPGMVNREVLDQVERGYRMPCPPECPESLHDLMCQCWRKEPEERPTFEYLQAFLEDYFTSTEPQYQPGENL
Protocol: c-Src kinase is purified from baculovirus infected insect cell lysates using an antipeptide monoclonal antibody directed against the N-terminal 2-17 amino acids as described previously by Fry, et al, Anticancer Drug Design. 9: 331-351 (1994). […] At the end of the lysate incubation, the beads are rinsed 3 times in lysis buffer, resuspended in lysis buffer containing 10% glycerol, and frozen. These latex beads are thawed, rinsed 3 times in assay buffer which is comprised of 40 mM tris pH 7.5, 5 mM magnesium chloride, and suspended in the same buffer. […] The reaction is started at room temperature by addition of the ATP and quenched 10 minutes later by the addition of 125 μL of 30% TCA, 0.1 M sodium pyrophosphate for 15 minutes on ice. The plate is then filtered and the wells washed with two 250-μL aliquots of 15% TCA, 0.1 M pyrophosphate. The filters are punched, counted in a liquid scintillation counter, and the data examined for inhibitory activity in comparison to a known inhibitor such as erbstatin. The method is described more fully in J. Med. Chem., 37: 598-609 (1994).

SMILES	pIC50 [1]	pIC50 [2]	pIC50 [3]	pIC50 [4]
O=Cc1ccc(-n2cnc3ccccc32)cc1 [Example 9, 1-(4-Formylphenyl)benzimidazole]	4.87			< 4.30
c1ccc2c(c1)ncn2-c1ccncc1 [Example 10, 1-(4-Pyridinyl)benzimidazole dihydrochloride]	4.91	4.30	< 4.30	< 4.30
CC(C)Oc1ccc2c(c1)ncn2-c1ccccc1 [Example 30, 5-Isopropoxy-1-phenylbenzimidazole Hydrochloride]	> 4.30		< 4.30	
CCCCOc1ccc2c(c1)ncn2-c1ccccc1 [Example 31, 5-Butoxy-1-phenylbenzimidazole Hydrochloride]			< 4.30	
COc1cc2ncn(-c3ccccc3)c2cc1OC [Example 46, 5,6-Dimethoxy-1-phenylbenzimidazole Hydrochloride]		4.60	< 4.30	4.40
c1ccc(-n2cnc3cc4c(cc32)OCO4)cc1 [Example 48, 5,6-Methylenedioxy-1-phenylbenzimidazole Hydrochloride]		4.57	< 4.30	
COc1cc2ncn(-c3ccccc3)c2cc1C [Example 49, 5-Methoxy-6-methyl-1-phenylbenzimidazole Hydrochloride]			< 4.30	
Cc1cc2c(cc1O)ncn2-c1ccccc1 [Example 50, 5-Hydroxy-6-methyl-1-phenylbenzimidazole Hydrochloride]			< 4.30	
O=C(O)c1cc2c(cc1O)ncn2-c1ccccc1 [Example 52, 5-Hydroxy-1-phenylbenzimidazole-6-carboxylic acid Hydrobromide]		4.66		
OCCCCOc1ccc2c(c1)ncn2-c1ccccc1 [Example 57, 5-(4-Hydroxybutoxy)-1-phenylbenzimidazole Hydrochloride]	6.30	4.60		< 4.30
CN(C)CCCCOc1ccc2c(c1)ncn2-c1ccccc1 [Example 58, 5-[4-(N,N-Dimethylamino)butoxy]-1-phenylbenzimidazole Dihydrochloride]	6.70	5.22		4.30
COc1ccc2c(ncn2-c2ccccc2)c1OC [Example 60, 4,5-Dimethoxy-1-phenylbenzimidazole Hydrochloride]				< 4.30
Oc1ccc2c(ncn2-c2ccccc2)c1O [Example 61, 4,5-Dihydroxy-1-phenylbenzimidazole Hydrochloride]		5.72		
COc1c(O)ccc2c1ncn2-c1ccccc1 [Example 62, 5-Hydroxy-4-methoxy-1-phenylbenzimidazole Hydrochloride]	4.30	4.30		
COc1ccc2c(ncn2-c2ccccc2)c1O [Example 63, 4-Hydroxy-5-methoxy-1-phenylbenzimidazole Hydrochloride]	> 4.30			4.40

The remaining compounds from weak to strong by pIC50 [1], led by results:

pIC50 [1]	pIC50 [2]	pIC50 [3]	pIC50 [4]	SMILES
4.92		< 4.30	< 4.30	COc1ccc(-n2cnc3ccccc32)cc1 [Example 5, 1-(4-Methoxyphenyl)benzimidazole Hydrochloride]
5.00	4.31	< 4.30	< 4.30	c1ccc(-n2cnc3cnccc32)cc1 [Example 22, 1-Phenylimidazo-1H-imidazol[4,5-c]pyridine Hydrochloride]
5.02	< 4.30			CCOc1ccc2ncn(-c3ccccc3)c2c1 [Example 44, 6-Ethoxy-1-phenylbenzimidazole]
5.17	< 4.30	< 4.30	< 4.30	O=Cc1cccc(-n2cnc3ccccc32)c1 [Example 4, 1-(3-Formylphenyl)benzimidazole Hydrochloride]
5.27				Clc1ccc2ncn(-c3ccccc3)c2c1 [Example 42, 6-Chloro-1-phenylbenzimidazole]
5.28	4.43		< 4.30	C=CC(=O)Nc1ccc2c(c1)ncn2-c1ccccc1 [Example 25, 5-Acrylamido-1-phenylbenzimidazole]
5.40	4.29			Clc1ccc2c(c1)ncn2-c1ccccc1 [Example 15, 5-Chloro-1-phenylbenzimidazole]
5.42	4.30	< 4.30	< 4.30	Oc1cccc(-n2cnc3ccccc32)c1 [Example 2, 1-(3-Hydroxyphenyl)benzimidazole Hydrochloride]
5.48	4.49	< 4.30	> 4.30	CC(=O)Nc1ccc2c(c1)ncn2-c1ccccc1 [Example 23, 5-Acetamido-1-phenylbenzimidazole Hydrochloride]
5.62	4.39	< 4.30	< 4.30	CCC(=O)Nc1ccc2c(c1)ncn2-c1ccccc1 [Example 24, 5-Propionamido-1-phenylbenzimidazole Hydrochloride]
5.64	4.96	< 4.30		Oc1cc2ncn(-c3ccccc3)c2cc1O [Example 47, 5,6-Dihydroxy-1-phenylbenzimidazole Hydrochloride]
5.74	5.24	< 4.30	< 4.30	Oc1ccc(-n2cnc3ccccc32)cc1 [Example 6, 1-(4-Hydroxyphenyl)benzimidazole Hydrochloride]
5.96		< 4.30		COc1cc2ncn(-c3ccccc3)c2cc1C=O [Example 54, 5-Methoxy-1-phenylbenzimidazole-6-carboxaldehyde Hydrochloride]
6.05	4.85			CC(=O)c1ccc2c(c1)ncn2-c1ccccc1 [Example 20, 5-Acetyl-1-phenylbenzimidazole]
6.15	5.19		< 4.30	COc1ccc2c(c1)ncn2-c1ccsc1 [Example 56, 5-Methoxy-1-(3-thienyl)benzimidazole Hydrochloride]
6.52				c1ccc(-n2cnc3cc(OCC4CO4)ccc32)cc1 (racemic) [Example 34, 5-(2,3-Epoxypropoxy)-1-phenylbenzimidazole]
6.52	4.46	< 4.30	< 4.30	CCCOc1ccc2c(c1)ncn2-c1ccccc1 [Example 29, 1-Phenyl-5-propoxybenzimidazole hydrochloride]
6.52	4.82			OCC(O)COc1ccc2c(c1)ncn2-c1ccccc1 (stereo not drawn) [Example 33, 5-(2,3-Dihydroxypropoxy)-1-phenylbenzimidazole Hydrochloride]
6.70	4.59	< 4.30		CCOc1ccc2c(c1)ncn2-c1ccccc1 [Example 28, 5-Ethoxy-1-phenylbenzimidazole Hydrochloride]
